The values below come from patent US20100210722A1, “COMPOSITION FOR PREVENTING OR TREATING LIPID METABOLIC DISORDERS COMPRISING FUCOXANTHIN OR MARINE PLANT EXTRACT CONTAINING SAME” (AMICOGEN, INC., priority 2007, published 2010).

Marks after values point to notes of the source that are not given here.

Assay type in all cases: in vivo, C57BL/6N/CriBgi mice
The subject of assay [1] is malic enzyme (ME). Nature of the assay: ME activity in liver tissue. Conditions: high fat diet, 6 weeks. The source says: (§1) Test diets were as follows: “normal diet group”=AIN-76 semisynthetic diet of Teklad (Madison, Wl, USA); “high fat diet group”=normal diet+10% of corn oil and 10% of lard; “test group I”=high fat diet+fucoxanthin extract of Example 1 (fucoxanthin content=0.05%); “test group II”=high fat diet+fucoxanthin extract of Example 1 (fucoxanthin content=0.2%); “test group III”=high fat diet+fucoxanthin extract of Example 2 (fucoxanthin content=0.05%); “test group IV”=high fat diet+fucoxanthin extract of Example 2 (fucoxanthin content=0.2%). The 6 diets (normal diet, high fat diet, and test I, II, III and IV) were given to the animals for 6 weeks. Diet intake was recorded every day, and body weight was measured once a week.
(§2) The supernatant was centrifuged again at 12,000×g for 15 minutes. Then, the supernatant was subjected to high-speed centrifuging (Beckman, Optima TLX-120, USA) at 100,000×g for 1 hour. Then, change of the activity of enzymes involved in the synthesis of fatty acid—fatty acid synthase (FAS), glucose-6-phosphate dehydrogenase (G6PD) and malic enzyme (ME)—was measured.
(§3) The ME enzyme is also an enzyme that supplied reducing energy required for the synthesis of fatty acid. […] ME activity was determined as follows. […] After 2 minutes of reaction at 27° C., absorbance was measured at 340 nm. ME activity was calculated as nmol of NADPH produced per 1 mg of protein in cell per minute.

Assay [2] has as its system fatty acid synthase (FAS). Kind of assay: FAS activity in liver tissue. Conditions: high fat diet, 6 weeks.
From the text: as §1, §2
Specifically, FAS activity was determined as follows. […] After 10 minutes of reaction at 30° C., decrease of absorbance was measured. FAS activity was calculated as nmol of NADPH oxidized per 1 mg of protein in cell per minute.

The subject of assay [3] is carnitine palmitoyltransferase (CPT). Kind of assay: CPT activity (mitochondrial fraction). Conditions: high fat diet, 6 weeks.
From the text: as §1
CPT is an enzyme involved in the oxidation of fatty acid and may be used as an index for the degree of oxidation of fatty acid. CPT activity was calculated from the measurement of CoASH produced from palmitoyl-CoA using 5,5-dithiobis-(2-nitrobenzoic acid) (DTNB). Specifically, 50 μL of mitochondrial fraction was added to a reaction solution containing 116 mM Tris-HCl (pH 8.0), 1.1 mM EDTA, 2.50 mM 1-carnitine, 0.5 mM DTNB, […] palmitoyl-CoA and 0.2% Triton X-100 to initiate reaction. Then, change of absorbance was measured at 25° C. and 412 nm for 2 minutes.

Assay [4] has as its system malic enzyme (ME). Nature of the assay: ME activity in adipose tissue. Conditions: high fat diet, 6 weeks.
From the text: as §1, §2, §3

For assay [5], the system named is phosphatidate phosphohydrolase (PAP). Kind of assay: PAP activity in liver tissue. Conditions: high fat diet, 6 weeks.
From the text: as §1

The subject of assay [6] is peroxisome proliferator-activated receptor α (PPARα) mRNA. Nature of the assay: Expression of mRNA for PPARα in liver tissue (real-time PCR). In general terms: Real-time PCR tracks product formation cycle by cycle.
A further assay deals with β-oxidase mRNA. Nature of the assay: Expression of mRNA for β-oxidation in adipose tissue (real-time PCR). The settings on record: normal diet = 1.00, GAPDH internal marker.
From the text: as §1
5 mL of Trizol was added to 0.5 g of white adipose tissue. After pulverizing in liquid nitrogen using a mortar, the tissue was added to 1 mL of chloroform. […] The isolated RNA was diluted and absorbance was measured at 260 nm using a UV spectrometer. […]
Thus prepared cDNA was […] 10-fold, and primers for analyzing the expression of the respective genes (CPT, β-oxidation, FAS, ME and G6PD) were obtained from Genotech (Daejeon, Korea). […] Fluorescence signals were monitored for each cycle and threshold cycle (Cr) was analyzed for quantitative analysis of mRNA for the test groups (Applied Biosystems, SDS7000) (Livak, 2001). […]

The mark [7] stands for this setting: fucoxanthin content 0.05% (Test I/III).
Where [8] appears, read: fucoxanthin content 0.2% (Test II/IV).

Turning to `CC(=O)O[C@H]1CC(C)(C)C(=C=C/C(C)=C/C=C/C(C)=C/C=C/C=C(C)/C=C/C=C(\C)C(=O)C[C@@]23O[C@]2(C)C[C@@H](O)CC3(C)C)[C@](C)(O)C1` [highly pure fucoxanthin, Fucoxanthin], the ME activity is recorded as 77.06 ± 7.08^a mmol/min/mg protein with malic enzyme (ME) [1] (setting [7]), 73.91 ± 6.37^a mmol/min/mg protein with malic enzyme (ME) [1] (setting [8]), 0.92 ± 0.14^a mmol/min/mg protein with malic enzyme (ME) [4] (setting [7]) and 0.94 ± 0.11^a mmol/min/mg protein in the assay with malic enzyme (ME) [4] (setting [8]). The FAS activity is recorded as 7.92 ± 0.59^a mmol/min/mg protein in assay [2] (setting [7]) and 9.49 ± 0.65^ab mmol/min/mg protein in assay [2] (setting [8]). The values for the CPT activity in assay [3] (setting [7]) and in assay [3] (setting [8]) were 13.36 ± 1.66^ab mmol/min/mg protein and 40.30 ± 12.10^c mmol/min/mg protein, respectively. In addition, the results for the PAP activity in assay [5] (setting [7]) and in assay [5] (setting [8]) were 21.62 ± 1.54^a mmol/min/mg protein and 26.14 ± 1.03^ab mmol/min/mg protein, respectively. Moreover, the “Expression of mRNA, PPARα” value in assay [6] (normal diet = 1.00, fucoxanthin content 0.05% (Test I/III)) is given as 1.22 ± 0.08^ab; in assay [6] (normal diet = 1.00, fucoxanthin content 0.2% (Test II/IV)) it was 1.57 ± 0.36^b. For the same compound, the “Expression of mRNA, β-Oxidation” value in the assay on β-oxidase mRNA (setting [7]) is listed as 1.41 ± 0.50^b; in the assay with β-oxidase mRNA (setting [8]), 1.26 ± 0.24^b.
